pIC50: −log10 of the molar value. ≈ marks a conversion by molar mass, not a printed value.
What was measured:
[1] = MRT in C57 mouse at 1 mg/kg,iv administration; type: ADME, organism-based; conditions: in vivo
[2] = test system: Staphylococcus aureus; test: Antibacterial activity against Staphylococcus aureus assessed as inhibition of bacterial growth; type: functional
[3] = test system: Staphylococcus aureus; test: Antibacterial activity against methicillin resistant Staphylococcus aureus assessed as inhibition of bacterial growth; type: functional
[4] = test system: Pseudomonas aeruginosa; test: Antibacterial activity against Pseudomonas aeruginosa assessed as inhibition of bacterial growth; type: functional
[5] = Bioavailability in C57 mouse at 1 mg/kg,iv administration; type: ADME, organism-based; conditions: in vivo
[6] = test system: Streptococcus pneumoniae; test: Antibacterial activity against Streptococcus pneumoniae assessed as inhibition of bacterial growth; type: functional
[7] = Tmax in C57 mouse at 3 mg/kg,po administration; type: ADME, organism-based; conditions: in vivo
[8] = Solubility of compound in PBS; type: physicochemical; conditions: PBS; read-out: solubility
[9] = test system: Salmonella enterica; test: Antibacterial activity against Salmonella enterica assessed as inhibition of bacterial growth; type: functional
[10] = target: Topoisomerase IV (Staphylococcus aureus, UniProt P0C1S7+P0C1U9); test: Inhibition of Staphylococcus aureus DNA topoisomerase 4; type: protein-complex assay
Sequence of Topoisomerase IV (P0C1U9 whole entry): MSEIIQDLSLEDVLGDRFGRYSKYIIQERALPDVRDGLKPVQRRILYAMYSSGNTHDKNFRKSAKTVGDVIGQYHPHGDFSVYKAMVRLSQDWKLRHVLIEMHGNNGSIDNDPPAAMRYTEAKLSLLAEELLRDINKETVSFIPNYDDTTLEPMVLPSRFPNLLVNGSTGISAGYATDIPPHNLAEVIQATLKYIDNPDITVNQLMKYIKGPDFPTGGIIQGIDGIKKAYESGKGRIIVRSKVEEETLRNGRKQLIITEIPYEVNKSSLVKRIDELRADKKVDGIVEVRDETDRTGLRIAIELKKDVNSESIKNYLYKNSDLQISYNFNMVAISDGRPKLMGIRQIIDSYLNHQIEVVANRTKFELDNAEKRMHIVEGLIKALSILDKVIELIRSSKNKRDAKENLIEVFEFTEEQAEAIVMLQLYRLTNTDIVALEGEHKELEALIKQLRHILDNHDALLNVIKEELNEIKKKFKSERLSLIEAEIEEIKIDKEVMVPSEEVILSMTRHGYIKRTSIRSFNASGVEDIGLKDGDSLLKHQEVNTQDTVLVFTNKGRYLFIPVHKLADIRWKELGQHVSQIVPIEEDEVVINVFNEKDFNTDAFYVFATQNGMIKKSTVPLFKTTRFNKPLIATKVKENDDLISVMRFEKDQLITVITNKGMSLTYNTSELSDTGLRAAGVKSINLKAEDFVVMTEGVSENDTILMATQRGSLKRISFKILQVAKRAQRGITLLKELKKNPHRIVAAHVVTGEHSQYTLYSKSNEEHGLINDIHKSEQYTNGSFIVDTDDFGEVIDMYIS
Sequence of Topoisomerase IV (P0C1S7 whole entry): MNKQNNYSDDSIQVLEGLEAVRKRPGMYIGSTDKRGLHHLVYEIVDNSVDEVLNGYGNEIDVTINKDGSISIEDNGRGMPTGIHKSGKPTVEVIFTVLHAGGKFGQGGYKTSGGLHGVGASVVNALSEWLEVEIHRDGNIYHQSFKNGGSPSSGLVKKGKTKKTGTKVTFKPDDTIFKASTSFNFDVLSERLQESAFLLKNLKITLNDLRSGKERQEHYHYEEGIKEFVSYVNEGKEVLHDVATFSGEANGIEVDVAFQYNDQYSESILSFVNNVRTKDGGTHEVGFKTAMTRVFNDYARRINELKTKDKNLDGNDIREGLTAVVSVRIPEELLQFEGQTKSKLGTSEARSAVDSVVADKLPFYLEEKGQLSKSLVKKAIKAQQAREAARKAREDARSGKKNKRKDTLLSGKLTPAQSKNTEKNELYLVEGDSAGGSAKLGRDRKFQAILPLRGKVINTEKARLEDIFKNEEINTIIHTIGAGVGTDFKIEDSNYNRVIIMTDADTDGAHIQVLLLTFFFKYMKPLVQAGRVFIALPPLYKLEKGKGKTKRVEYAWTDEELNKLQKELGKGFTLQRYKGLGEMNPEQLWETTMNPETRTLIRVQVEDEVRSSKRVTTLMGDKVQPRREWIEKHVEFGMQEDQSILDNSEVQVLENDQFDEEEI

[11] = test system: Shigella flexneri; test: Antibacterial activity against Shigella flexneri assessed as inhibition of bacterial growth; type: functional
[12] = test system: Streptococcus pyogenes; test: Antibacterial activity against Streptococcus pyogenes assessed as inhibition of bacterial growth; type: functional
[13] = test system: Acinetobacter baumannii; test: Antibacterial activity against Acinetobacter baumannii assessed as inhibition of bacterial growth; type: functional
[14] = test system: Enterococcus faecalis; test: Antibacterial activity against Enterococcus faecalis assessed as inhibition of bacterial growth; type: functional
[15] = target: Cytochrome P450 2C19 (Homo sapiens, UniProt P33261); test: Inhibition of CYP2C19 (unknown origin) at 10 uM; type: ADME
Sequence of Cytochrome P450 2C19 (P33261 whole entry): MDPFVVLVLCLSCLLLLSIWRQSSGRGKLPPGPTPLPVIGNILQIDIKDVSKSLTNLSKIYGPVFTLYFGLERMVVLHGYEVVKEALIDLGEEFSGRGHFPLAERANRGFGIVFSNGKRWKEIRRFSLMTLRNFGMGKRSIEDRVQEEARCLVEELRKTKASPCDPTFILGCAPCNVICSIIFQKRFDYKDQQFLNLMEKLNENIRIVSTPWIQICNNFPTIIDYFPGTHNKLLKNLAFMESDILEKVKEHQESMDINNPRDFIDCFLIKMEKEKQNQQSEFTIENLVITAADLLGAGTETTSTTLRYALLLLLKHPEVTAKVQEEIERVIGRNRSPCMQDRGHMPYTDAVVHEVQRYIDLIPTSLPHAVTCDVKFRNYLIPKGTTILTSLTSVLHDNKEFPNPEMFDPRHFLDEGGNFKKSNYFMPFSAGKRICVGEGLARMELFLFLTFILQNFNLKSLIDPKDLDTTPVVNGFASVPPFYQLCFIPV

[16] = test system: Helicobacter pylori; test: Antibacterial activity against Helicobacter pylori assessed as inhibition of bacterial growth; type: functional
[17] = test system: Klebsiella pneumoniae; test: Antibacterial activity against Klebsiella pneumoniae assessed as inhibition of bacterial growth; type: functional
[18] = test system: Enterococcus faecium; test: Antibacterial activity against Enterococcus faecium assessed as inhibition of bacterial growth; type: functional
[19] = Volume of distribution at steady state in C57 mouse at 1 mg/kg,iv administration; type: ADME, organism-based; conditions: in vivo, read-out: Vdss
[20] = Plasma protein binding in human; type: ADME, cell-free; conditions: read-out: PPB (converted)
[21] = Half life in C57 mouse at 1 mg/kg,iv administration; type: ADME, organism-based; conditions: in vivo
[22] = target: Cytochrome P450 2D6 (Homo sapiens, UniProt P10635); test: Inhibition of CYP2D6 (unknown origin) at 10 uM; type: ADME
Sequence of Cytochrome P450 2D6 (P10635 whole entry): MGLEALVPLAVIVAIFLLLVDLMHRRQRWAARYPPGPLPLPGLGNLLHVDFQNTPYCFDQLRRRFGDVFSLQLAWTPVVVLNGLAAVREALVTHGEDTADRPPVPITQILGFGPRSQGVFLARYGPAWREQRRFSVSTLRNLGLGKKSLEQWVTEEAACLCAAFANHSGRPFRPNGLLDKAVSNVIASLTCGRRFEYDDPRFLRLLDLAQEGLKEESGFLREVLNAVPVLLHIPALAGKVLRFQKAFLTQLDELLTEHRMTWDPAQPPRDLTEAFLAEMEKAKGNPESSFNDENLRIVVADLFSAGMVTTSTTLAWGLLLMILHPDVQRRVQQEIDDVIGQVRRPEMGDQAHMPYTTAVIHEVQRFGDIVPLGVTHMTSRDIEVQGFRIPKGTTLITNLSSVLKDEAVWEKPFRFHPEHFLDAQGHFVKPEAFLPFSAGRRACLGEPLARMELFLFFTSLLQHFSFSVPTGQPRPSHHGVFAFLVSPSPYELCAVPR

[23] = test system: Haemophilus influenzae; test: Antibacterial activity against Haemophilus influenzae assessed as inhibition of bacterial growth; type: functional
[24] = target: Cytochrome P450 3A4 (Homo sapiens, UniProt P08684); test: Inhibition of CYP3A4 (unknown origin) at 10 uM; type: ADME
Sequence of Cytochrome P450 3A4 (P08684 whole entry): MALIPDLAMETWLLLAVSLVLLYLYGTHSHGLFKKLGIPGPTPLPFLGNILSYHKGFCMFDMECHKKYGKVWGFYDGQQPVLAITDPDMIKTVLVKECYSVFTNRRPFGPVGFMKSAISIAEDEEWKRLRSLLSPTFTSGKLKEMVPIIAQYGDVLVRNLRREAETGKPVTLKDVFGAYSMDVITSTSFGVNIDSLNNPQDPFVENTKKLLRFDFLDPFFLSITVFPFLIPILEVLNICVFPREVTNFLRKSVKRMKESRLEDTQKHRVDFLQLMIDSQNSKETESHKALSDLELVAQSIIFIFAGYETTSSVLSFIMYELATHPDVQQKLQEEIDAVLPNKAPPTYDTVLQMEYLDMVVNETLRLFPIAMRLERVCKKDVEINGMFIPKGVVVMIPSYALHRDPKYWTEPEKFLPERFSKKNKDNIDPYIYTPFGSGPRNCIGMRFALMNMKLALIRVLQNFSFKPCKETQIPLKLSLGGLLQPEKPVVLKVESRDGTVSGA

[25] = test system: Enterococcus faecalis; test: Antibacterial activity against vancomycin-resistant Enterococcus faecalis assessed as inhibition of bacterial growth; type: functional
[26] = Clearance in C57 mouse at 1 mg/kg,iv administration; type: ADME, organism-based; conditions: in vivo
[27] = test system: Escherichia coli; test: Antibacterial activity against Escherichia coli assessed as inhibition of bacterial growth; type: functional
[28] = AUC (0 to t) in C57 mouse at 1 mg/kg,iv administration; type: ADME, organism-based; conditions: in vivo
[29] = C0 in C57 mouse at 1 mg/kg,iv administration; type: ADME, organism-based; conditions: in vivo
[30] = test system: Staphylococcus aureus; test: Antibacterial activity against Staphylococcus aureus ATCC 29213 assessed as inhibition of bacterial growth; type: functional
[31] = test system: Escherichia coli; test: Antibacterial activity against Escherichia coli ATCC 25922 assessed as inhibition of bacterial growth; type: functional
[32] = Cmax in C57 mouse at 3 mg/kg,po administration; type: ADME, organism-based; conditions: in vivo
[33] = target: DNA gyrase (Staphylococcus aureus, UniProt P0A0K8+P20831); test: Inhibition of Staphylococcus aureus DNA gyrase; type: protein-complex assay
Sequence of DNA gyrase (P0A0K8 whole entry): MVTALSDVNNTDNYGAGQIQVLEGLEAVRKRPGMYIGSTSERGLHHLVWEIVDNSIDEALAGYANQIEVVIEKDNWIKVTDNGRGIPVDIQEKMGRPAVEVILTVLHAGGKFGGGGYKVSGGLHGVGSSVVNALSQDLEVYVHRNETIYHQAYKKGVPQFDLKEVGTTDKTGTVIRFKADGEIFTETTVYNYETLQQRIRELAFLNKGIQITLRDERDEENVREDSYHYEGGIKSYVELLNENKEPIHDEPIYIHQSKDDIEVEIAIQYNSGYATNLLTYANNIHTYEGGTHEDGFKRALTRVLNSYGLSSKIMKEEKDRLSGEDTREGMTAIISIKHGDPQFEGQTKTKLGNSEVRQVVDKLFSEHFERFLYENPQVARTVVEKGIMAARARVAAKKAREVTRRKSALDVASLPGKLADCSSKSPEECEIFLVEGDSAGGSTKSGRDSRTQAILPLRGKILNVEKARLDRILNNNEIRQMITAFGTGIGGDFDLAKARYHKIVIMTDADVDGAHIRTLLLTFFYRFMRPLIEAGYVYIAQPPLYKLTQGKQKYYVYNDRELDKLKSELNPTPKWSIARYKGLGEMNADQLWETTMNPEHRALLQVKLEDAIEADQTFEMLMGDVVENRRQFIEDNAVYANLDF
Sequence of DNA gyrase (P20831 whole entry): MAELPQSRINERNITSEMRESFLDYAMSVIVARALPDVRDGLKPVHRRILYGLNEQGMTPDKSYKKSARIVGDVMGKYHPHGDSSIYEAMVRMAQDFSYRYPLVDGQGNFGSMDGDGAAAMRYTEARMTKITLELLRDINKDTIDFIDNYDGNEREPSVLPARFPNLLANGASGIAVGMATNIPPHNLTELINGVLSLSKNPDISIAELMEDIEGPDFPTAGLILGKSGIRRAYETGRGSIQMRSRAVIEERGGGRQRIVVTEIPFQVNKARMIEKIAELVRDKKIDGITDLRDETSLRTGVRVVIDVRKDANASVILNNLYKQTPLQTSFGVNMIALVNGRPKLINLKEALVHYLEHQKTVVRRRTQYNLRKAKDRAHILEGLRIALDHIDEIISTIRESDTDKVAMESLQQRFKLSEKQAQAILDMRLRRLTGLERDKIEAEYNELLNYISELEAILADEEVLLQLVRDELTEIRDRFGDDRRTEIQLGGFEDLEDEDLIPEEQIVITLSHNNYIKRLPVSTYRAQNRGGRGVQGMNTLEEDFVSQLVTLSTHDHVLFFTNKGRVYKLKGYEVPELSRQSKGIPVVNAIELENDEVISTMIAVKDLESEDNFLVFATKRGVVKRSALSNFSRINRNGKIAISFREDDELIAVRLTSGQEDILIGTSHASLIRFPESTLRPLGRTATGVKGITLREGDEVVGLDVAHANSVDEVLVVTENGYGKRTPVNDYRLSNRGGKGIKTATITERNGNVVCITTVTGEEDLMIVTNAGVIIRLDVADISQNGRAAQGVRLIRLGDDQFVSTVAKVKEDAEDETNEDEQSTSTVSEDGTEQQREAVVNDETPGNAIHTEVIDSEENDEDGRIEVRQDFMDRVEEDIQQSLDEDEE

[34] = target: T1, Cytochrome P450 1A2 (Homo sapiens, UniProt P05177); test: Inhibition of CYP1A2 (unknown origin) at 10 uM; type: ADME
T1 sequence (P05177 whole entry): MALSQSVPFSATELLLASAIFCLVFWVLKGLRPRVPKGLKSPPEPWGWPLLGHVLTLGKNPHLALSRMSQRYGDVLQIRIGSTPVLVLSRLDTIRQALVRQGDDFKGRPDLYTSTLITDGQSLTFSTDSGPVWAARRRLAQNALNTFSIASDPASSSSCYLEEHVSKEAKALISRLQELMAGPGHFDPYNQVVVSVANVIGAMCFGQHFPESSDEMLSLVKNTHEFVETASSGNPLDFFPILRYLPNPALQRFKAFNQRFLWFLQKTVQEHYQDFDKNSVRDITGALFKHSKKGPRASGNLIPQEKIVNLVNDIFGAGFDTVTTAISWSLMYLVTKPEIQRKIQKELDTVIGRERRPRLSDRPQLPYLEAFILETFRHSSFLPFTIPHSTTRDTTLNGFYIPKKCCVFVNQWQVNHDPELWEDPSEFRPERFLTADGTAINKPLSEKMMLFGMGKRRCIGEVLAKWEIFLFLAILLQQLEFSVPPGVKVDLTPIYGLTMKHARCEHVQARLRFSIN

[35] = target: T2, Cytochrome P450 2C8 (Homo sapiens, UniProt P10632); test: Inhibition of CYP2C8 (unknown origin) at 10 uM; type: ADME
T2 sequence (P10632 whole entry): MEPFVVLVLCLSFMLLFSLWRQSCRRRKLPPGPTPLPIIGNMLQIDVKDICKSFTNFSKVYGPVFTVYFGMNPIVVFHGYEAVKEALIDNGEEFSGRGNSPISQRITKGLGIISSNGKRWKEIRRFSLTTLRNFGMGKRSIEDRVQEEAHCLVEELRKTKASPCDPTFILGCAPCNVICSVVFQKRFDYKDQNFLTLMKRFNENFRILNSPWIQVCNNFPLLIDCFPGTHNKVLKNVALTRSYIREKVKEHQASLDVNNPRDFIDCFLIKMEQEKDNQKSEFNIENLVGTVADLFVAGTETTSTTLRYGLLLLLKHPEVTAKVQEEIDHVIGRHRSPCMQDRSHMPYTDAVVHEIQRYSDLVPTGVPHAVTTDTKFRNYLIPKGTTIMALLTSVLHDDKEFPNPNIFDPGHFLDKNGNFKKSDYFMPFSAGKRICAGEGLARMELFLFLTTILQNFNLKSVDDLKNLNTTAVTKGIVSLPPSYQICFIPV

[36] = Aqueous solubility of compound; type: physicochemical; conditions: aqueous medium; read-out: solubility
[37] = test system: Salmonella typhimurium; test: Antibacterial activity against Salmonella typhimurium assessed as inhibition of bacterial growth; type: functional, Salmonella enterica subsp. enterica serovar Typhimurium
[38] = AUC (0 to t) in C57 mouse at 3 mg/kg,po administration; type: ADME, organism-based; conditions: in vivo

N#Cc1ccc2ccc(=O)n(CCN3CCC(NCc4ccc5c(c4)NC(=O)CS5)CC3)c2c1
MRT [1]: 3 h | MIC [2]: 0.016 µg/mL (≈ 0.0338 µM) | MIC90 [2]: 0.125 µg/mL (≈ 0.264 µM) | MIC [3]: 0.03 µg/mL (≈ 0.0633 µM) | MIC90 [3]: 0.125 µg/mL (≈ 0.264 µM) | MIC [4]: 0.125 µg/mL (≈ 0.264 µM) | MIC90 [4]: 8 µg/mL (≈ 16.9 µM) | bioavailability [5]: 18% | MIC [6]: 0.125 µg/mL (≈ 0.264 µM) | MIC90 [6]: 1 µg/mL (≈ 2.11 µM) | Tmax [7]: 3 h | solubility [8]: 611 µg/mL (≈ 1290 µM) | MIC [9]: 1 µg/mL (≈ 2.11 µM) | pIC50 [10]: 6.52 | MIC [11]: 0.25 µg/mL (≈ 0.528 µM) | MIC [12]: 0.15 µg/mL (≈ 0.317 µM) | MIC90 [12]: 0.25 µg/mL (≈ 0.528 µM) | MIC [13]: 0.125 µg/mL (≈ 0.264 µM) | MIC90 [13]: 2 µg/mL (≈ 4.22 µM) | MIC [14]: 0.5 µg/mL (≈ 1.06 µM) | MIC90 [14]: 0.5 µg/mL (≈ 1.06 µM) | inhibition (INH) [15]: Not Active | MIC [16]: < 0.06 µg/mL | MIC90 [17]: 16 µg/mL (≈ 33.8 µM) | MIC [18]: 1 µg/mL (≈ 2.11 µM) | MIC90 [18]: 1 µg/mL (≈ 2.11 µM) | Vd [19]: 14 L/kg | fraction unbound [20]: 0.21 | half-life [21]: 2.5 h | inhibition (INH) [22]: Not Active | MIC [23]: 2 µg/mL (≈ 4.22 µM) | inhibition (INH) [24]: Not Active | MIC [25]: 0.25 µg/mL (≈ 0.528 µM) | MIC90 [25]: 4 µg/mL (≈ 8.45 µM) | clearance [26]: 80 mL/min/kg | MIC [27]: 0.125 µg/mL (≈ 0.264 µM) | MIC90 [27]: 2 µg/mL (≈ 4.22 µM) | AUC(0-t) [28]: 206 ng·h/mL | C0 [29]: 1210 ng/mL | MIC [30]: < 0.125 µg/mL | MIC [31]: < 0.125 µg/mL | Cmax [32]: 22 ng/mL | pIC50 [33]: 8.49 | inhibition (INH) [34]: Not Active | inhibition (INH) [35]: Not Active | solubility [36]: 719 µg/mL (≈ 1520 µM) | MIC [37]: 2 µg/mL (≈ 4.22 µM) | AUC(0-t) [38]: 110 ng·h/mL

Reference: ChEMBL document CHEMBL6127020, “Discovery of aminopiperidine based potent & novel topoisomerase inhibitor with broad spectrum anti-bacterial activity” (Bioorg Med Chem Lett, 2024)
